Source: patent US20250368651A1 (priority 2022, published 2025)
Where two headings read alike, the source gives them in different places.

Assays:
[1] = molecular target: DNA Seq6 (UGAAGGAAGGU as deoxyribonucleotides); test: FP binding assay, DNA Seq6; conditions: footnote c: FP assay for DNA Seq6; range = 95% CI; read-out: Kd
Procedure: All synthetic DNA and RNA oligomers were purchased from Integrated DNA Technologies and reconstituted in nuclease-free water (Invitrogen #AM9932) at 1 mM. The concentration of the oligonucleotides at ˜0.1 mM was calibrated with the A260 value measured by a NanoDrop ND-1000 (Thermo, Waltham, MA, USA) and the predicted extinction coefficient (http://www.oligoevaluator.com) using Lamber-Beer's Law. The risdiplam analogues (1 mM in DMSO) were diluted in 2× assay buffer (40 mM HEPES, 200 mM NaCl for RNA; 40 mM HEPES, 200 mM NaCl, 1 mM MgCl2 for DNA) to make a 1 μM 2× working solution.
A 1:2 dilution series (8 points) of each oligonucleotide was prepared in 20-30 μL water to desired concentrations (i.e., 1-128 μM). 20-30 μL 2× working solution containing the 2× assay buffer and the small-molecule ligand was added to each oligonucleotide sample in 1:1 (v/v) and mixed by pipetting for 4 times. For fluorescence polarization measurement, 20 μL of the above 1× working solution was transferred into a 384-well, black, F-bottom microplates (Greiner Bio-One) in duplicates or triplicates. The plate was equilibrated at room temperature for 5 min before being read using a microplate reader (SYNERGY H1, BioTek; Excitation/Emission=360/460 nm) at 25° C. For compound SMN-C5, a competitive binding assay was employed to measure an apparent Kd. SMN-C5 was 1:2 serial diluted for 10 concentration points starting at 750 μM in DMSO. A mixture of SMN-C2 (0.5 μM) and DNA Seq6 (25 μM) in 1× assay buffer was prepared and incubated at room temperature for 10 minutes. 3 μL of SMN-C5 solution at each concentration was added to a 42 μL SMN-C2/DNA Seq6 mixture and incubated at room temperature for 10 minutes. The mixture was then transferred into a microplate (20 μL each well) in duplicates for fluorescence polarization readout. The experimental data were analyzed using Prism 8 software (Graphpad Software, San Diego, CA, USA).

SMN2 exon 7 splicing = test: Cell-based SMN2 splicing assay in 293T cells (minigene); set-up: species or system human; conditions: for EC50: Homo sapiens, HEK-293T; for splicing modulation in cells: cellular SMN2 splicing assays
in vitro [2] = conditions: human
in vitro [3] = conditions: human; remark: listed apart in the source
in vitro [4] = conditions: human; remark: listed apart in the source
[5] = molecular target: COVID RNA (SARS-CoV-2 RNA SL5 per FIG. 8); test: FP binding, Kd for COVID RNA
[6] = Table 3, read-out: SMN2 Splicing EC50
[7] = cell-based SMN2 splicing assay in 293T cells, read-out: SMN2 EC50

## CN1CCN(c2ccc3cc(-c4ccccc4Cl)c(=O)oc3c2)CC1 [Compound C18, 3-(2-chlorophenyl)-7-(4-methylpiperazin-1-yl)-2H-chromen-2-one]
[1]
  Kd: > 100 µM
SMN2 exon 7 splicing; [6]
  EC50: > 8 µM
SMN2 exon 7 splicing; [7]
  EC50: > 8 µM

## CN1CCN(c2ccc3cc(-c4ccc(Cl)cc4)c(=O)oc3c2)CC1 [Compound C20, 3-(4-chlorophenyl)-7-(4-methylpiperazin-1-yl)-2H-chromen-2-one]
[1]
  Kd: 8.2 ± 0.7 µM
SMN2 exon 7 splicing; [6]
  EC50: > 8 µM
SMN2 exon 7 splicing; [7]
  EC50: > 8 µM
SMN2 exon 7 splicing
  splicing modulation in cells: without showing any observable splicing modulation

## CN1CCN(c2ccc3cc(-c4cccc(Cl)c4)c(=O)oc3c2)CC1 [Compound C19, 3-(3-chlorophenyl)-7-(4-methylpiperazin-1-yl)-2H-chromen-2-one]
[1]
  Kd: 13.9 ± 1.1 µM
SMN2 exon 7 splicing; [6]
  EC50: > 8 µM
SMN2 exon 7 splicing; [7]
  EC50: > 8 µM
In vitro [2]
  CC50: > 30 µM
In vitro [3]
  CC50: > 30 µM
In vitro [4]
  CC50: > 30 µM

## O=c1oc2cc(N3CCNCC3)ccc2cc1-c1cn2ccc(C(F)(F)F)cc2n1 [Compound C36, 7-(piperazin-1-yl)-3-(7-(trifluoromethyl)imidazo[1,2-a]pyridin-2-yl)-2H-chromen-2-one]
[5]; Table 3
  Kd: 1.4 ± 0.4 µM
[5]; Table 4
  Kd: 1.39 ± 0.4 µM

## Cc1cn2cc(-c3c(Br)c4ccc(N5CCN[C@@H](C)C5)cc4oc3=O)nc2c(C)n1 [Compound C13, (S)-4-bromo-3-(6,8-dimethylimidazo[1,2-a]pyrazin-2-yl)-7-(3-methylpiperazin-1-yl)-2H-chromen-2-one]
SMN2 exon 7 splicing; [6]
  EC50: 0.45 ± 0.18 µM

## CCOC(=O)C1=C(Nc2ccccc2)S/C(=C\c2ccc(OCCOCCn3cc(COCCOCCOCCOCCN4CCN(c5ccc6cc(-c7cn8cc(C)nc(C)c8n7)c(=O)oc6c5)CC4C)nn3)c(O)c2)C1=O (stereo in doubt) [Compound C9, (S,Z)-ethyl 5-(4-(2-(2-(4-(13-(4-(3-(6,8-dimethylimidazo[1,2-a]pyrazin-2-yl)-2-oxo-2H-chromen-7-yl)-2-methylpiperazin-1-yl)-2,5,8,11-tetraoxatridecyl)-1H-1,2,3-triazol-1-yl)ethoxy)ethoxy)-3-hydroxybenzylidene)-4-oxo-2-(phenylamino)-4,5-dihydrothiophene-3-carboxylate]
SMN2 exon 7 splicing; [6]
  EC50: > 8 µM

## O=c1oc2cc(N3CCNCC3)ccc2cc1-c1ccc2ncccc2c1 [Compound C38]
SMN2 exon 7 splicing; [6]
  EC50: > 8 µM
In vitro [4]
  CC50: 1.8 µM

## Cc1cn2cc(-c3c(OCCNC(=O)OC(C)(C)C)c4ccc(N5CCN[C@@H](C)C5)cc4oc3=O)nc2c(C)n1 [Compound C7]
SMN2 exon 7 splicing; [6]
  EC50: > 8 µM

## O=c1oc2cc(N3CCNCC3)ccc2cc1-c1cn2ccccc2n1 [Compound C29, 3-(imidazo[1,2-a]pyridin-2-yl)-7-(piperazin-1-yl)-2H-chromen-2-one]
[1]
  Kd: 2.8 ± 0.5 µM
SMN2 exon 7 splicing; [6]
  EC50: > 8 µM
SMN2 exon 7 splicing; [7]
  EC50: > 8 µM
SMN2 exon 7 splicing
  splicing modulation in cells: without showing any observable splicing modulation
[5]; Table 3
  Kd: 0.46 ± 0.08 µM
[5]; Table 4
  Kd: 0.46 ± 0.8 µM
In vitro [4]
  CC50: 5.4 µM

## Cc1c(-c2ccc(Cl)cc2)c(=O)oc2cc(N3CCN(C)CC3)ccc12 [Compound C23, 3-(4-chlorophenyl)-4-methyl-7-(4-methylpiperazin-1-yl)-2H-chromen-2-one]
[1]
  Kd: > 100 µM
SMN2 exon 7 splicing; [6]
  EC50: > 8 µM
SMN2 exon 7 splicing; [7]
  EC50: > 8 µM

## CC(=O)N1CCN(c2ccc3cc(-c4cn5cc(C)nc(C)c5n4)c(=O)oc3c2)C[C@@H]1C [Compound C8, (S)-7-(4-acetyl-3-methylpiperazin-1-yl)-3-(6,8-dimethylimidazo[1,2-a]pyrazin-2-yl)-2H-chromen-2-one]
SMN2 exon 7 splicing; [6]
  EC50: > 8 µM

## COc1cn2cc(-c3cc4ccc(N5CCNCC5)cc4oc3=O)nc2cn1 [Compound C28, 3-(6-methoxyimidazo[1,2-a]pyrazin-2-yl)-7-(piperazin-1-yl)-2H-chromen-2-one]
[1]
  Kd: 1.4 ± 0.2 µM
SMN2 exon 7 splicing; [6]
  EC50: > 8 µM
SMN2 exon 7 splicing; [7]
  EC50: > 8 µM
SMN2 exon 7 splicing
  splicing modulation in cells: without showing any observable splicing modulation
[5]; Table 3
  Kd: 0.47 ± 0.08 µM
[5]; Table 4
  Kd: 0.47 ± 0.8 µM

## O=c1oc2cc(N3CCNCC3)ccc2cc1-c1ccc2ccccc2c1 [Compound C39]
SMN2 exon 7 splicing; [6]
  EC50: > 8 µM
In vitro [4]
  CC50: 7.9 µM

## Cc1c(-c2ccccc2Cl)c(=O)oc2cc(N3CCN(C)CC3)ccc12 [Compound C21, 3-(2-chlorophenyl)-4-methyl-7-(4-methylpiperazin-1-yl)-2H-chromen-2-one]
SMN2 exon 7 splicing; [6]
  EC50: > 8 µM

## O=c1oc2cc(N3CCNCC3)ccc2cc1-c1cn2cc(C(F)(F)F)ccc2n1 [Compound C37, 7-(piperazin-1-yl)-3-(6-(trifluoromethyl)imidazo[1,2-a]pyridin-2-yl)-2H-chromen-2-one]
In vitro [4]
  CC50: 14.1 µM

## CN1CCN(c2cc(F)c3cc(-c4ccccc4Cl)c(=O)oc3c2)CC1 [Compound C24, 3-(2-chlorophenyl)-5-fluoro-7-(4-methylpiperazin-1-yl)-2H-chromen-2-one]
SMN2 exon 7 splicing; [6]
  EC50: > 8 µM

## Cc1c(-c2cccc(Cl)c2)c(=O)oc2cc(N3CCN(C)CC3)ccc12 [Compound C22, 3-(3-chlorophenyl)-4-methyl-7-(4-methylpiperazin-1-yl)-2H-chromen-2-one]
[1]
  Kd: > 100 µM
SMN2 exon 7 splicing; [6]
  EC50: > 8 µM
SMN2 exon 7 splicing; [7]
  EC50: > 8 µM
In vitro [2]
  CC50: > 30 µM
In vitro [3]
  CC50: > 30 µM
In vitro [4]
  CC50: > 30 µM

## O=c1oc2cc(N3CCNCC3)ccc2cc1-c1cn2cc(Cl)ccc2n1 [Compound C33, 3-(6-chloroimidazo[1,2-a]pyridin-2-yl)-7-(piperazin-1-yl)-2H-chromen-2-one]
In vitro [4]
  CC50: 11.6 µM

## COc1ccn2cc(-c3cc4ccc(N5CCNCC5)cc4oc3=O)nc2c1 [Compound C34, 3-(7-methoxyimidazo[1,2-a]pyridin-2-yl)-7-(piperazin-1-yl)-2H-chromen-2-one]
In vitro [4]
  CC50: 3.6 µM

## Cc1cn2cc(-c3cc4ccc(N5CCN(CCOCCN=[N+]=[N-])[C@@H](C)C5)cc4oc3=O)nc2c(C)n1 [Compound C12, (S)-7-(4-(2-(2-azidoethoxy)ethyl)-3-methylpiperazin-1-yl)-3-(6,8-dimethylimidazo[1,2-a]pyrazin-2-yl)-2H-chromen-2-one]
SMN2 exon 7 splicing; [6]
  EC50: 0.18 ± 0.04 µM
[5]; Table 3
  Kd: 2.6 ± 0.8 µM
[5]; Table 4
  Kd: 2.6 ± 0.8 µM

## O=c1oc2cc(N3CCNCC3)ccc2cc1-c1cn2ccc(Cl)cc2n1 [Compound C32, 3-(7-chloroimidazo[1,2-a]pyridin-2-yl)-7-(piperazin-1-yl)-2H-chromen-2-one]
SMN2 exon 7 splicing; [6]
  EC50: > 8 µM
[5]; Table 3
  Kd: 0.4 ± 0.04 µM
[5]; Table 4
  Kd: 0.4 ± 0.4 µM

## CN1CCN(c2cc(F)c3cc(-c4cccc(Cl)c4)c(=O)oc3c2)CC1 [Compound C25, 3-(3-chlorophenyl)-5-fluoro-7-(4-methylpiperazin-1-yl)-2H-chromen-2-one]
[1]
  Kd: 18.7 ± 4 µM
SMN2 exon 7 splicing; [6]
  EC50: > 8 µM
SMN2 exon 7 splicing; [7]
  EC50: > 8 µM

## COc1ccc2nc(-c3cc4ccc(N5CCNCC5)cc4oc3=O)cn2c1 [Compound C35, 3-(6-methoxyimidazo[1,2-a]pyridin-2-yl)-7-(piperazin-1-yl)-2H-chromen-2-one]
In vitro [4]
  CC50: 3 µM

## O=c1oc2cc(N3CCNCC3)ccc2cc1-c1cn2cc(F)ccc2n1 [Compound C31, 3-(6-fluoroimidazo[1,2-a]pyridin-2-yl)-7-(piperazin-1-yl)-2H-chromen-2-one]
[5]; Table 3
  Kd: 0.68 ± 0.1 µM
[5]; Table 4
  Kd: 0.68 ± 0.1 µM
In vitro [4]
  CC50: 4.7 µM

## CN1CCN(c2cc(F)c3cc(-c4ccc(Cl)cc4)c(=O)oc3c2)CC1 [Compound C26, 3-(4-chlorophenyl)-5-fluoro-7-(4-methylpiperazin-1-yl)-2H-chromen-2-one]
[1]
  Kd: 9.9 ± 0.9 µM
SMN2 exon 7 splicing; [6]
  EC50: > 8 µM
SMN2 exon 7 splicing; [7]
  EC50: > 8 µM
In vitro [2]
  CC50: > 30 µM
In vitro [3]
  CC50: > 30 µM
In vitro [4]
  CC50: > 30 µM
